Measured values published in ChEMBL document CHEMBL5042474, “Structure-Guided Discovery of Potent and Selective DYRK1A Inhibitors” (J Med Chem, 2021).

Tests used:
[1] = molecular target: T1, Dual specificity tyrosine-phosphorylation-regulated kinase 1A (Homo sapiens, UniProt Q13627); assay: Inhibition of DYRK1A (unknown origin) using Ulight-MBP as substrate and ATP as co-substrate incubated for 40 mins and measured after 1 hr by TR-FRET assay
[2] = molecular target: T1, Dual specificity tyrosine-phosphorylation-regulated kinase 1A; assay: Inhibition of wild type full length DYRK1A (unknown origin) in human U2OS cells assessed as reduction in pSER520 autophosphorylation incubated for 5 hrs by western blot analysis; type: cell-based
[3] = molecular target: T2, Dual specificity tyrosine-phosphorylation-regulated kinase 2 (Homo sapiens, UniProt Q92630); assay: Inhibition of DYRK2 (unknown origin) using Ulight-MBP as substrate and ATP as co-substrate incubated for 40 mins and measured after 1 hr by TR-FRET assay
T2 sequence (Q92630 whole entry): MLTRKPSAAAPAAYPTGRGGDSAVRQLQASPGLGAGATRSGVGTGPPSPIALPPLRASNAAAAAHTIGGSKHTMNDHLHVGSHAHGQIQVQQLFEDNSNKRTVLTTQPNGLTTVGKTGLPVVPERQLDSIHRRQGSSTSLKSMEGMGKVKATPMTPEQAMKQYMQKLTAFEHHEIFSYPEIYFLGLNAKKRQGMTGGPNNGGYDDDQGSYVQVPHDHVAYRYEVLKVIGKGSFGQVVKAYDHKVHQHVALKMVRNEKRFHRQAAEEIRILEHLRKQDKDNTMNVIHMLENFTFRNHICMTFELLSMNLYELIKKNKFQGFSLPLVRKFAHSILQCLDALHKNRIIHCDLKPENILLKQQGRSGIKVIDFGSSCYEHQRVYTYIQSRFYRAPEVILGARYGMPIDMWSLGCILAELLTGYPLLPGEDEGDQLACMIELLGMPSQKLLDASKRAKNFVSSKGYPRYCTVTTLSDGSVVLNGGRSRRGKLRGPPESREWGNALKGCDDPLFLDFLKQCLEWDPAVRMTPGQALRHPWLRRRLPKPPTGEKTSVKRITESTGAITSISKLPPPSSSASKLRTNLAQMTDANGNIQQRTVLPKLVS

[4] = molecular target: Cyclin-dependent kinase 9 (Homo sapiens, UniProt P50750); assay: Inhibition of CDK9 (unknown origin) using Ulight-MBP as substrate and ATP as co-substrate incubated for 40 mins and measured after 1 hr by TR-FRET assay
Sequence of Cyclin-dependent kinase 9 (P50750 whole entry): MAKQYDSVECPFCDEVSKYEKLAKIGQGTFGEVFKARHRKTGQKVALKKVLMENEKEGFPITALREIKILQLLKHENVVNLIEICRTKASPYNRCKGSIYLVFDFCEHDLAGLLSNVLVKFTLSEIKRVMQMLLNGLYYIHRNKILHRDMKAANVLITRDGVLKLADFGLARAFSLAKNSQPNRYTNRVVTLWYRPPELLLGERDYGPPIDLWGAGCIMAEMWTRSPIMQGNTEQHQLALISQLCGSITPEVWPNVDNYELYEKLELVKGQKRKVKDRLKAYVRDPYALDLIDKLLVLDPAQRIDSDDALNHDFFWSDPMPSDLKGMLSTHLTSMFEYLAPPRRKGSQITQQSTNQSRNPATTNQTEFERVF

RS4-11 [5] = assay: Antitumor activity against human RS4-11 cells xenografted in BALB/c nu/nu mouse assessed as reduction in DYRK1A autophosphorylation of S520 residue at 6.25 mg/kg, po measured after 2 hrs by western blotting analysis relative to control; type: functional; parameters: scale not given: the % may be the effect or the level left
RS4-11 [6] = assay: Antitumor activity against human RS4-11 cells xenografted in BALB/c nu/nu mouse reduction in DYRK1A autophosphorylation of S520 residue at 6.25 mg/kg, po measured after 6 hrs by western blotting analysis relative to control; type: functional; parameters: scale not given: the % may be the effect or the level left

COc1cc(-c2ccnc(N)c2)ccc1Cl
IC50 [1]: 218 nM

Nc1cc(-c2ccc3nccn3c2)cc(N)n1
IC50 [1]: 17 nM

Cc1oc2ccc(-c3cc(N)nc(N)c3)cc2c1C
IC50 [1]: 1 nM
IC50 ([2]; read-out: IC50): 1650 nM
IC50 [3]: 21 nM
IC50 [4]: 8.84 µM

Cc1nc2ccc(-c3cc(N)nc(N)c3)nc2n1CC(F)(F)F
Activity (RS4-11 [5]): 93%
Activity (RS4-11 [6]): 95%
IC50 [3]: 6 nM

Nc1cc(-c2ccc3occc3c2)cc(NCCc2ccsc2)n1
IC50 [1]: 189 nM

Nc1cc(-c2ccc3ncoc3c2)cc(N)n1
IC50 [1]: 10 nM

Cc1nc2ccc(-c3cc(N)nc(N)c3)nc2n1CC(F)F
IC50 [3]: 4 nM

Nc1cc(-c2ccc3occc(=O)c3c2)cc(N)n1
IC50 [1]: 42 nM

Cc1cc(-c2ccc(Cl)cc2)ccn1
IC50 [1]: > 10000 nM

Cc1nc2ccc(-c3cc(N)nc(N)c3)nc2n1C[C@@H](C)Oc1ccccc1
IC50 ([2]; read-out: IC50): 111 nM
IC50 [3]: 46 nM
IC50 [4]: > 3 µM

Nc1cc(-c2ccc3c(c2)CCO3)cc(N)n1
IC50 [1]: 16 nM

Nc1cc(-c2ccn3nccc3n2)cc(N)n1
IC50 [1]: 2 nM

Cc1nc2ccc(-c3cc(N)nc(N)c3)nc2n1C[C@@H](C)Oc1ccccn1
IC50 [1]: 7 nM
IC50 [3]: 116 nM
IC50 [4]: > 3 µM

Nc1cc(-c2ccc3ncsc3c2)cc(N)n1
IC50 [1]: 1 nM

c1cc(-c2ccc3occc3c2)ccn1
IC50 [1]: 320 nM

Nc1cc(-c2ccc3occc3c2)ccn1
IC50 [1]: 19 nM

Cc1nc2ccc(-c3cc(N)nc(N)c3)nc2n1Cc1ccc(F)cc1
IC50 ([2]; read-out: IC50): 3000 nM
IC50 [3]: 134 nM

Nc1cc(-c2ccc3sccc3c2)cc(N)n1
IC50 [1]: 137 nM

COc1ccc(-c2ccnc(C)c2)cc1
IC50 [1]: 670 nM

Cc1nc2ccc(-c3cc(N)nc(N)c3)nc2n1C1CCCC1
IC50 [3]: 1 nM

COCCCn1c(C)nc2ccc(-c3cc(N)nc(N)c3)nc21
IC50 [3]: 5 nM

Cc1nc2ccc(-c3cc(N)nc(N)c3)nc2n1CCc1ccco1
IC50 [3]: 6 nM

Cc1nc2ccc(-c3cc(N)nc(N)c3)nc2n1C[C@@H](C)Oc1cccc(Br)n1
IC50 [1]: 5 nM
IC50 ([2]; read-out: IC50): 44 nM
IC50 [3]: 195 nM
IC50 [4]: 0.467 µM

Cc1nc2ccc(-c3cc(N)nc(N)c3)nc2n1CCOc1cccc(Br)n1
IC50 [3]: 52 nM
IC50 [4]: 0.289 µM

Nc1cc(-c2ccc3c(c2)OCCO3)cc(N)n1
IC50 [1]: 11 nM

Cc1nc2ccc(-c3cc(N)nc(N)c3)nc2n1C[C@H](C)Oc1ccccc1
IC50 [1]: 8 nM
IC50 ([2]; read-out: IC50): 73 nM
IC50 [3]: 22 nM
IC50 [4]: > 3 µM

c1cc(-c2ccc3occc3c2)cc(N2CCNCC2)n1
IC50 [1]: 3560 nM

CNc1cc(-c2ccc3occc3c2)cc(N)n1
IC50 [1]: 17 nM

Cc1cc2cc(-c3cc(N)nc(N)c3)ccc2o1
IC50 [1]: 34 nM
IC50 ([2]; read-out: IC50): 1800 nM
IC50 [4]: > 10 µM

Nc1cc(-c2ccc3occc3c2)cc(N)n1
IC50 [1]: 14 nM
IC50 ([2]; read-out: IC50): 500 nM
IC50 [4]: 0.041 µM

Cn1cnc2cc(-c3cc(N)nc(N)c3)ccc21
IC50 [1]: 14 nM

COc1ccc(-c2ccnc(N)c2)cc1
IC50 [1]: 126 nM

Cn1cnc2ccc(-c3cc(N)nc(N)c3)nc21
IC50 [1]: 13 nM

Cc1cc(-c2ccc3occc3c2)cc(N)n1
IC50 [1]: 77 nM

Cc1nc2ccc(-c3cc(N)nc(N)c3)nc2n1CCCC(F)(F)F
IC50 [3]: 10 nM

Nc1cc(-c2ccc3ocnc3c2)cc(N)n1
IC50 [1]: 22 nM

Nc1cc(-c2ccc3ncccc3c2)cc(N)n1
IC50 [1]: 10 nM

Nc1cc(-c2ccc3ncnn3c2)cc(N)n1
IC50 [1]: 15 nM

CNCC(=O)Nc1cc(-c2ccc3occc3c2)cc(N)n1
IC50 [1]: 168 nM

Cc1nc2ccc(-c3cc(N)nc(N)c3)nc2n1C(C)(C)C
IC50 [3]: 6 nM

Cc1nc2ccc(-c3cc(N)nc(N)c3)nc2n1CCOc1ccccc1
Activity (RS4-11 [5]): 59%
Activity (RS4-11 [6]): 25%
IC50 [3]: 9 nM

COCCCNc1cc(-c2ccc3occc3c2)cc(N)n1
IC50 [1]: 96 nM

Cc1nc2ccc(-c3cc(N)nc(N)c3)nc2n1CCC1CCCCC1
IC50 [3]: 9 nM

Cc1onc2ccc(-c3cc(N)nc(N)c3)cc12
IC50 [1]: 19 nM

Nc1cc(-c2ccc3oc(Cl)cc3c2)cc(N)n1
IC50 [1]: 76 nM
IC50 ([2]; u2os): Not Active
IC50 [4]: 5.43 µM

Cc1nc2ccc(-c3cc(N)nc(N)c3)nc2n1CCOc1cccc(Cl)n1
IC50 [3]: 33 nM
IC50 [4]: 0.222 µM

Cc1nc2ccc(-c3cc(N)nc(N)c3)nc2n1CCOc1ccccn1
IC50 [3]: 34 nM

Nc1cc(-c2ccc3occc3c2)nc(N)n1
IC50 [1]: 36 nM

Nc1cc(-c2ccc3occc3n2)cc(N)n1
IC50 [1]: 10 nM

COc1ccc(-c2cc(N)nc(N)n2)cc1
IC50 [1]: 158 nM

Nc1cc(-c2ccc3c(c2)CCO3)nc(N)n1
IC50 [1]: 22 nM

Cc1nc2ccc(-c3cc(N)nc(N)c3)nc2n1C[C@H](C)Oc1ccccn1
IC50 ([2]; read-out: IC50): > 300 nM
IC50 [3]: 117 nM
IC50 [4]: > 3 µM
